Data set [1] concerns MGC-803 cells. As to the kind of experiment: CCK-8 proliferation assay, MGC-803. The settings on record: Homo sapiens, MGC-803; 48 h, CCK-8, mean ± SD. The data set is classed as cell-based, human. The method, then:
(§1) All synthesized β-lactam-azide derivatives were evaluated for their antiproliferative activity against three cancer cell lines (MGC-803, MCF-7, A549) using CCK-8 proliferation assay. The well-known anticancer drug CA-4P was used as a control[36],[37].
(§2) MGC-803 cell line was obtained from the Chinese Academy of Sciences (Shanghai, China). MCF-7 and A549 were from the National Cell Center, China. MGC-803 cells were cultured in DMEM culture medium (DMEM, Biological Industries, Kibbutz Beit Haemek, Israel). A549 and MCF-7 cells were cultured in 1640 medium (1640, Biological Industries, Kibbutz Beit Haemek, Israel). All medium were supplemented with 10% fetal bovine serum, 100 U/ml penicillin (North China Pharmaceutical group Co.), and 100 µg/ml streptomycin (North China Pharmaceutical group Co.). All cells were cultured at 37 °C in a humidified incubator containing 5% CO2.
(§3) Synthesized analogues used in the study were dissolved in 100% cell culture grade DMSO and the final concentration of DMSO as <0.1% for testing on cancer cell lines. Cytotoxicity assays were performed on the human gastric carcinoma cell line MGC-803, the human mammary carcinoma cell line MCF-7, the human lung carcinoma cell line A549. Cells (3500–5000/well) were seeded into 96-well plates in 100 µL of culture medium. The cells were treated in triplicate with a gradient concentration of testing compounds and incubated at 37 °C, 5% CO2 for 48 h. For all cell lines, CCK-8 assay was performed to measure cytotoxic effects. The absorbance was measured using a microplate reader (BioTek Instrument, Inc. Vermont, USA) with a test wavelength of 450 nm. The absorbance levels were corrected against untreated control absorbance values. All experiments were performed in triplicate and SPSS17.0 was used for data analysis to obtain IC50 values.
On the technique in general: Formazan colour is commonly taken as a measure of viable cells.

Data set [2] relates to MCF-7 cells. The data set is described as follows: CCK-8 proliferation assay, MCF-7. The class given is cell-based, human. The settings on record: Homo sapiens, MCF7; 48 h, CCK-8, mean ± SD. The method, then: as §1, §2, §3
Data set [3] has as its system A549 cells. As to the kind of experiment: CCK-8 proliferation assay, A549. The data set is classed as cell-based, human. The note with it: Homo sapiens, A549; 48 h, CCK-8, mean ± SD. As to the method:
as §1, §2, §3

In data set [4] the test system is three cancer cell lines (MGC-803, MCF-7, A549). As to the kind of experiment: CCK-8 proliferation assay, three cancer cell lines together. The class given is cell-based. The settings on record: Homo sapiens, 48 h, read-out: IC50 values toward three cancer cell lines. The method, then: as §1, §2
Synthesized analogues used in the study were dissolved in 100% cell culture grade DMSO and the final concentration of DMSO as <0.1% for testing on cancer cell lines. […] The absorbance was measured using a microplate reader (BioTek Instrument, Inc. Vermont, USA) with a test wavelength of 450 nm. The absorbance levels were corrected against untreated control absorbance values. […]

For data set [5], the system named is bladder cancer cells. Set-up: method as in PMID 18281555. The note with it: cited from earlier work.
The subject of data set [6] is tubulin. Set-up: method as in PMID 11058036. The settings on record: read-out: anti-tubulin activity IC50; cited from earlier work.
Data set [7] has as its system tubulin. Set-up: method as in PMID 15588080. The settings on record: cited from earlier work.

By IC50 is commonly meant the concentration at which inhibition is half-maximal. In general, melting point refers to the temperature, or range, at which the solid turns liquid.

For the molecule `COc1cc(N2C(=O)[C@H](c3ccccc3)[C@H]2c2ccc(N=[N+]=[N-])cc2)cc(OC)c1OC` (relative stereo) [Compound 18, trans-4-(4-azidophenyl)-3-phenyl-1-(3,4,5-trimethoxyphenyl)azetidin-2-one], the melting point fell in the range of 66 to 68 °C. In data set [1], this molecule yielded an IC50 of 171 ± 51 nM. In data set [2], this molecule gave a half-inhibitory concentration (IC50) of 338 ± 4 nM. The molecule further gave an IC50 in data set [3] of 1.74 ± 0.145 µM.

In turn, `COc1cc(N2C(=O)[C@@H](c3ccccc3)[C@@H]2c2cccc(N=[N+]=[N-])c2)cc(OC)c1OC` (relative stereo) [Compound 25, trans-4-(3-azidophenyl)-3-phenyl-1-(3,4,5-trimethoxyphenyl)azetidin-2-one] had a melting point of 128 to 129 °C. For the same molecule, the 50% inhibitory concentration (IC50) in data set [1] came to 392 ± 28 nM. In data set [2], this molecule showed an IC50 of 805 ± 176 nM. The 50% inhibitory concentration (IC50) in data set [3] was determined as 2.13 ± 0.39 µM.

As to `COc1cc(N2C(=O)[C@H](c3cccs3)[C@H]2c2ccc(N=[N+]=[N-])cc2)cc(OC)c1OC` (relative stereo) [Compound 26, trans-4-(4-azidophenyl)-3-(thiophen-2-yl)-1-(3,4,5-trimethoxyphenyl)azetidin-2-one], the half-maximal inhibitory concentration (IC50) in data set [1] is 251 ± 53 nM; in data set [2], 154 ± 19 nM; in data set [3] it was 4.2 ± 0.186 µM; in data set [4], 154 to 4200 nM.

As for `COc1cc(N2C(=O)[C@@H](c3ccccc3)[C@@H]2c2ccc(-n3cc(COc4cccc([N+](=O)[O-])c4)nn3)cc2)cc(OC)c1OC` (relative stereo) [Compound 29, trans-4-(4-(4-((3-nitrophenoxy)methyl)-1H-1,2,3-triazol-1-yl)phenyl)-3-phenyl-1-(3,4,5-trimethoxyphenyl)azetidin-2-one], the melting point was 142 to 145 °C. The molecule also came in with an IC50 in data set [1] of over 20000 nM. In data set [2], the half-inhibitory concentration (IC50) was over 20000 nM. In data set [3], this molecule came in with an IC50 of over 20 µM.

Turning to `COc1ccc([C@@H]2C(=O)N(c3cc(OC)c(OC)c(OC)c3)[C@H]2c2ccc(-n3cc(-c4ccccc4)nn3)cc2)cc1` (relative stereo) [Compound 30, trans-3-(4-methoxyphenyl)-4-(4-(4-phenyl-1H-1,2,3-triazol-1-yl)phenyl)-1-(3,4,5-trimethoxyphenyl)azetidin-2-one], the melting point is 90 to 91 °C. The molecule further gave an IC50 in data set [1] of over 20000 nM. For the same molecule, the IC50 in data set [2] is over 20000 nM. The molecule also returned a half-inhibitory concentration (IC50) in data set [3] of over 20 µM.

Take `COc1cccc(/C=C/C(=O)N=[N+]=[N-])c1OC` [Compound 1]: in data set [5], the “in vitro and in vivo antitumor effect of romidepsin on bladder cancer cells” value was “enhanced”.

Turning to `COc1cc(/C=C\c2cc(OC)c(OC)c(OC)c2)ccc1N=[N+]=[N-]` [Compound 2], in data set [6], the half-maximal inhibitory concentration (IC50) is 5.2 µM.

Turning to `CC(=O)OC1C(=O)C2(C)C(O)CC3OCC3(OC(C)=O)C2C(OC(=O)c2ccccc2)C2(O)CC(OC(=O)C(O)C(NC(=O)c3ccccc3)c3ccc(N=[N+]=[N-])cc3)C(C)=C1C2(C)C` (centres unmarked) [Compound 3, 3′-(4-Azidophenyl)-3′-dephenylpaclitaxel], in data set [7], the “activity in tubulin assembly and cytotoxicity assays” value was “as active as paclitaxel”.
